In PubChem BioAssay (NCI) one finds TGI and GI50 data, which are given here for seven compounds.

Several values for one entry are separate records, joined by “and”; a condition that tells them apart may be missing. Equal values may be shown once.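 Values below derive from 48-hour exposures of cells grown in 96-well plates, with endpoints linearly interpolated between the two concentrations bracketing the appropriate inhibition level. Abbreviation: GI50, concentration required for 50% inhibition of growth. At the TGI there is no net growth.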 Where only a bound is given, the exact number is not on record here.

Some test systems named below: A549 NSCLC; HCT-116 colon; HS 578T breast; HT29 colon; K-562 leukemia; MALME-3M melanoma; OVCAR-3 ovarian; SK-MEL-28 melanoma; SK-OV-3 ovarian; U251 CNS.
Common to all, as to test: NCI tumour cell line growth inhibition, 48 h

As to `CN(C)CCNC(=O)Cn1ccc(=O)c2cc([N+](=O)[O-])ccc21`, the TGI in the assay with A549 NSCLC, in the assay on HCT-116 colon, in the assay with HS 578T breast, with HT29 colon, in the assay with K-562 leukemia and in the assay with MALME-3M melanoma was over 100000 nM in each case. The TGI in the assay with OVCAR-3 ovarian, in the assay on SK-MEL-28 melanoma, with SK-OV-3 ovarian and in the assay with U251 CNS was over 100000 nM in each case.

Regarding `CC(=O)c1c(C(F)(F)F)n([O-])c2ccccc2[n+]1=O`, the GI50 with A549 NSCLC was 2280 nM; with HCT-116 colon, 1550 nM; in the assay on HS 578T breast, 1970 nM; in the assay on HT29 colon, 1300 nM; in the assay on K-562 leukemia, 1260 nM; in the assay on MALME-3M melanoma, 652 nM. The GI50 with OVCAR-3 ovarian was 746 nM; in the assay with SK-MEL-28 melanoma, 3480 nM; in the assay on SK-OV-3 ovarian, 3170 nM; in the assay with U251 CNS it was 2170 nM. In addition, the TGI with A549 NSCLC is 14300 nM; with HCT-116 colon, 10500 nM; with HS 578T breast, 6500 nM; with HT29 colon, 8300 nM; in the assay with K-562 leukemia it was over 100000 nM; in the assay with MALME-3M melanoma it was 3060 nM. Besides, the TGI with OVCAR-3 ovarian was 2610 nM; with SK-MEL-28 melanoma, 18000 nM; in the assay with SK-OV-3 ovarian, 23900 nM; with U251 CNS, 14500 nM.

On to `CC1CC(C)CC(C)C(O)/C(C#N)=C/C=C/CC(C2CCCC2C(=O)O)OC(=O)CC(O)C(C)C1` (centres undefined), for which the GI50 in the assay with A549 NSCLC is 68.1 nM; with HCT-116 colon, 47.3 nM; with HS 578T breast, 39.5 nM; in the assay with HT29 colon, 64.4 nM and 28.6 nM; in the assay with K-562 leukemia it was 26.3 nM and < 12.1 nM; with MALME-3M melanoma it was 115 nM. Further, the GI50 with OVCAR-3 ovarian is 35.8 nM and 17.8 nM; with SK-MEL-28 melanoma, 26.2 nM; in the assay with SK-OV-3 ovarian, 36.9 nM. The TGI in the assay with A549 NSCLC was 496 nM and 919 nM; with HCT-116 colon, 700 nM and 145 nM; in the assay with HS 578T breast, 223 nM and 67.3 nM; with HT29 colon, 574 nM and 321 nM; with K-562 leukemia it was 66 nM and 256 nM; in the assay on MALME-3M melanoma, 312 nM and 106 nM. Also, the TGI is 199 nM and 87.9 nM in the assay on OVCAR-3 ovarian; 84.7 nM and 39.2 nM in the assay with SK-MEL-28 melanoma; 217 nM and 91.7 nM in the assay with SK-OV-3 ovarian; 54.7 nM and 44.9 nM with U251 CNS.

With `COC(=O)C1=C(O)C(C(=O)OC)C2CC(=O)CC1C2(C)C` (centres undefined), the TGI in the assay with A549 NSCLC, with HCT-116 colon, in the assay with HS 578T breast, in the assay on HT29 colon, in the assay with K-562 leukemia and in the assay on MALME-3M melanoma was over 100000 nM throughout. For the same compound, the TGI in the assay on OVCAR-3 ovarian, in the assay with SK-MEL-28 melanoma, with SK-OV-3 ovarian and in the assay on U251 CNS was over 100000 nM throughout.

As for `COc1ccc2c(c1)C(=O)/C(=C/c1cccc(OCC(=O)c3ccccc3)c1)CC2`, the GI50 is 36600 nM in the assay with A549 NSCLC; 3520 nM with HCT-116 colon; 43700 nM in the assay on HS 578T breast; 9900 nM in the assay with HT29 colon; 1980 nM in the assay on K-562 leukemia; 28500 nM with MALME-3M melanoma. Also, the GI50 in the assay on OVCAR-3 ovarian is 18300 nM; in the assay on SK-MEL-28 melanoma it was 32800 nM; in the assay on SK-OV-3 ovarian, 62900 nM; with U251 CNS, 16800 nM. The TGI in the assay on A549 NSCLC is over 100000 nM; with HCT-116 colon it was over 100000 nM; in the assay on HS 578T breast it was over 100000 nM; with HT29 colon, over 100000 nM; with K-562 leukemia, 5820 nM; in the assay on MALME-3M melanoma it was over 100000 nM. Moreover, the TGI with OVCAR-3 ovarian, in the assay with SK-MEL-28 melanoma, with SK-OV-3 ovarian and in the assay on U251 CNS was over 100000 nM each time.

For the compound `N=C1C(O)C2(I)c3ccccc3N3C(=N)C(O)C4c5ccccc5N1C4C32` (centres undefined), the TGI with A549 NSCLC, with HCT-116 colon, in the assay with HS 578T breast, in the assay with HT29 colon, in the assay on K-562 leukemia and with MALME-3M melanoma was over 100000 nM throughout. The TGI with OVCAR-3 ovarian is over 100000 nM; with SK-MEL-28 melanoma it was over 100000 nM; in the assay on SK-OV-3 ovarian, over 100000 nM; in the assay with U251 CNS, 43900 nM.

On to `CCOc1ccccc1CCN=C1NC(=O)/C(=C/c2ccc3ncccc3c2)S1`, for which the GI50 was 1230 nM in the assay on A549 NSCLC; 995 nM in the assay on HCT-116 colon; 2760 nM with HS 578T breast; 783 nM in the assay on HT29 colon; 840 nM with K-562 leukemia; 3000 nM in the assay on MALME-3M melanoma. The GI50 with OVCAR-3 ovarian is 772 nM; in the assay with SK-MEL-28 melanoma it was 5220 nM; with SK-OV-3 ovarian, 1810 nM; in the assay with U251 CNS, 1200 nM. Moreover, the TGI in the assay with A549 NSCLC is over 25000 nM; in the assay with HCT-116 colon, over 9150 nM; with HS 578T breast, over 7140 nM; in the assay on HT29 colon, 3160 nM; in the assay on K-562 leukemia, 19800 nM; with MALME-3M melanoma, 10600 nM. Besides, the TGI in the assay on OVCAR-3 ovarian was 2290 nM; with SK-MEL-28 melanoma, over 24100 nM; in the assay with SK-OV-3 ovarian it was 8460 nM; with U251 CNS, over 25000 nM.
